According to patent publication US6881741B2 (ViroChem Pharma Inc., priority 2001, dated 2005):
Like-named read-outs stand apart in the source and are kept apart here.

Target: recombinant HCV NS5B (HCV RNA-dependent RNA polymerase) (Hepatitis C virus genotype 1b, UniProt P26663)
Assay: biochemical
[1] = HCV polymerase activity, list of compounds of Example 27, read-out: IC50 (polymerase activity)
[2] = related polymerase activity (Example 27 list), read-out: IC50

recombinant HCV NS5B (HCV RNA-dependent RNA polymerase), sequence (P26663 2420-3010 limits assumed): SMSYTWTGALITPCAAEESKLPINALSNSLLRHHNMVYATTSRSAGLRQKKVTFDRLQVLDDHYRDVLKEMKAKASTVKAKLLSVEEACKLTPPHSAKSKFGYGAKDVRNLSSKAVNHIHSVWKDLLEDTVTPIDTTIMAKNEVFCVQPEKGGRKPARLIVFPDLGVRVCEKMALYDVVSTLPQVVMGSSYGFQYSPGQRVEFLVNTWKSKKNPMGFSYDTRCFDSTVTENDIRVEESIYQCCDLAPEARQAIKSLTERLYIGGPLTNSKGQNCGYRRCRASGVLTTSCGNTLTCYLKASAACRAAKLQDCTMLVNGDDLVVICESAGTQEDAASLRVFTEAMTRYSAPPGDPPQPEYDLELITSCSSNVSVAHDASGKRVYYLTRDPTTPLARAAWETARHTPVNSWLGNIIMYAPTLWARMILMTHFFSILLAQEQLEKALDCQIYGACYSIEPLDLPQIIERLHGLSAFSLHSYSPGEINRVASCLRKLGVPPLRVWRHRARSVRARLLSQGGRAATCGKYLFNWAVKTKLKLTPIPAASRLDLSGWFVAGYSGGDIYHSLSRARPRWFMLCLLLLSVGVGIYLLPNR

SMILES	IC50 [1]	IC50 [2]	further results
CC1CCC(C(=O)N(CC2CCNCC2)c2cc(-c3ccccc3)sc2C(=O)O)CC1 (stereo not shown) [Compound 544, 4-([(2-CARBOXY-5-PHENYL-THIOPHEN-3- YL)-(4-METHYL- CYCLOHEXANECARBONYL)-AMINO]- METHYL)-PIPERIDINIUM; TRIFLUORO- ACETATE]	< 5 µM		
CCCC(=O)N(Cc1cccc(OC)c1)c1cc(-c2ccccc2)sc1C(=O)O [Compound 475, 3-[BUTYRYL-(3-METHOXY-BENZYL)- AMINO]-5-PHENYL-THIOPHENE-2- CARBOXYLIC ACID]	5 to 20 µM		
Cc1ccccc1S(=O)(=O)Nc1cc(-c2ccc(Cl)s2)sc1C(=O)O [Compound 57, 5′-CHLORO-4-(TOLUENE-2-SULFONYLAMINO)-[2,2′]BITHIOPHENYL-5-CARBOXYLIC ACID]		< 5 µM	
Cc1ccc(C(=O)N(C)c2cc(-c3ccc(C)cc3)sc2C(=O)O)cc1 [Compound 199, 3-[METHYL-(4-METHYL-BENZOYL)-AMINO]-5-P-TOLYL-THIOPHENE-2-CARBOXYLIC ACID]		5 to 20 µM	
CO[C@H]1CCCCC1N(C(=O)c1ccc(Cl)cc1Cl)c1cc(-c2ccccc2)sc1C(=O)O (stereo partly shown) [Compound 534, 3-[(2-DICHLORO-BENZOYL)-(2- METHOXY-CYCLOHEXYL)-AMINO]-5- PHENYL-THIOPHENE-2- CARBOXYLIC ACID]	< 5 µM		
CC(C)N(C(=O)C1CCCCCC1)c1cc(-c2ccccc2)sc1C(=O)O [Compound 380, 3-(CYCLOHEPTANECARBONYL- ISOPROPYL-AMINO)-5-PHENYL- THIOPHENE-2-CARBOXYLIC ACID]		< 5 µM	
CC(C)N(C(=O)c1ccc(Cl)cc1Cl)c1c(C(=O)O)sc(-c2ccccc2)c1F [Compound 542, 3-[(2,4-DICHLORO-BENZOYL)- ISOPROPYL-AMINO]-4-FLUORO-5- PHENYL-THIOPHENE-2-CARBOXYLIC ACID]	5 to 20 µM		
O=C(O)c1sc(-c2ccccc2)cc1NS(=O)(=O)c1cccc(C(F)(F)F)c1 [Compound 50, 5-PHENYL-3-(3-TRIFLUOROMETHYL-BENZENESULFONYLAMINO)-THIOPHENE-2-CARBOXYLIC ACID]		5 to 20 µM	
CC1CCC(C(=O)N(c2cc(-c3ccccc3)sc2C(=O)O)C(C)C)CC1 (stereo not shown) [Compound 316, 3-[ISOPROPYL-(4-METHYL- CYCLOHEXANECARBONYL)-AMINO]-5- PHENYL-THIOPHENE-2-CARBOXYLIC ACID]			IC50 (IC50): > 20 µM
CC(C)N(C(=O)C1=CC[C@@H](C)CC1)c1cc(-c2ccccc2)sc1C(=O)O [Compound 562, 3-[(4S)-ISOPROPYL-(4-METHYL- CYCLOHEX-1-ENECARBONYL)-AMINO]-5- PHENYL-THIOPHENE-2-CARBOXYLIC ACID]	< 5 µM		
Cc1ccc(C(=O)N(C)c2cc(-c3ccc(F)cc3F)sc2C(=O)O)cc1 [Compound 214, 5-(2,4-DIFLUORO-PHENYL)-3-[METHYL-(4-METHYL-BENZOYL)-AMINO]-THIOPHENE-2-CARBOXYLIC ACID]		5 to 20 µM	
O=C(NC1CCC(N(C(=O)c2ccc(Cl)cc2Cl)c2cc(-c3ccccc3)sc2C(=O)O)CC1)OCc1ccccc1 (stereo not shown) [Compound 512, 3-[(4-BENZYLOXYCARBONYLAMINO- CYCLOHEXYL)-(2,4-DICHLORO- BENZOYL)-AMINO]-5-PHENYL- THIOPHENE-2-CARBOXYLIC ACID]	< 5 µM		
Cc1ccccc1S(=O)(=O)Nc1cc(C#C[Si](C)(C)C)sc1C(=O)O [Compound 79]		< 5 µM	
C=CCN(C(=O)Cc1ccc(OC)cc1)c1cc(-c2ccccc2)sc1C(=O)O [Compound 491, 3-{ALLYL-[2-(4-METHOXY-PHENYL)- ACETYL]-AMINO}-5-PHENYL-THIOPHENE- 2-CARBOXYLIC ACID]	> 20 µM		
Cc1ccc(C(=O)N(c2cc(-c3ccc(F)cc3)sc2C(=O)O)C(C)C)cc1 [Compound 283, 5-(4-FLUORO-PHENYL)-3-[ISOPROPYL-(4-METHYL-BENZOYL)-AMINO]-THIOPHENE-2-CARBOXYLIC ACID]		< 5 µM	
Cc1ccc(C(=O)N(C)c2cc(-c3cccc(C(F)(F)F)c3)sc2C(=O)O)cc1 [Compound 274, 3-[METHYL-(4-METHYL-BENZOYL)-AMINO]-5-(3-TRIFLUOROMETHYL-PHENYL)-THIOPHENE-2-CARBOXYLIC ACID]		< 5 µM	
Cc1c(S(=O)(=O)Nc2cc(-c3ccccc3)sc2C(=O)O)sc2ccc(Cl)cc12 [Compound 38, 3-(5-CHLORO-3-METHYL-BENZO[ B ]THIOPHENE-2-SULFONYLAMINO)-5-PHENYL-THIOPHENE-2-CARBOXYLIC ACID]		< 5 µM	
Cc1ccc(S(=O)(=O)Nc2cc(-c3ccsc3)sc2C(=O)O)cc1 [Compound 11, 4-(TOLUENE-4-SULFONYLAMINO)-[2,3′]BITHIOPHENYL-5-CARBOXYLIC ACID]		5 to 20 µM	
Cc1ccccc1S(=O)(=O)Nc1cc(-c2nccs2)sc1C(=O)O [Compound 178, 5-THIAZOL-2-YL-3-(TOLUENE-2-SULFONYLAMINO)-THIOPHENE-2-CARBOXYLIC ACID]		< 5 µM	
Cc1ccc(C(=O)N(C)c2cc(-c3ccc(N)cc3)sc2C(=O)O)cc1 [Compound 200, 5-(4-AMINO-PHENYL)-3-[METHYL-(4-METHYL-BENZOYL)-AMINO]-THIOPHENE-2-CARBOXYLIC ACID]		5 to 20 µM	

SMILES	IC50 [1]	IC50 [2]	further results
Cc1nn(C)c(Cl)c1S(=O)(=O)Nc1cc(-c2ccccc2)sc1C(=O)O [Compound 41, 3-(5-CHLORO-1,3-DIMETHYL-1H-PYRAZOLE-4-SULFONYLAMINO)-5-PHENYL-THIOPHENE-2-CARBOXYLIC ACID]		5 to 20 µM	
Cc1ccccc1S(=O)(=O)Nc1cc(-c2cc3ccccc3o2)sc1C(=O)O [Compound 127, 5-BENZOFURAN-2-YL-3-(TOLUENE-2-SULFONYLAMINO)-THIOPHENE-2-CARBOXYLIC ACID]		< 5 µM	
CCC(=O)N(Cc1ccc(Cl)cc1)c1cc(-c2ccccc2)sc1C(=O)O [Compound 456, 3-[(4-CHLORO-BENZYL)-PROPIONYL- AMINO]-5-PHENYL-THIOPHENE-2- CARBOXYLIC ACID]	< 5 µM		
CC(C)CC(=O)N(Cc1ccc(C(F)(F)F)cc1)c1cc(-c2ccccc2)sc1C(=O)O [Compound 412, 3-[(3-METHYL-BUTYRYL)-(4- TRIFLUOROMETHYL-BENZYL)-AMINO]-5- PHENYL-THIOPHENE-2-CARBOXYLIC ACID]	5 to 20 µM		
CCCC(=O)N(Cc1ccc(C(C)(C)C)cc1)c1cc(-c2ccccc2)sc1C(=O)O [Compound 440, 3-[(4-TERT-BUTYL-BENZYL)-BUTYRYL- AMINO]-5-PHENYL-THIOPHENE-2- CARBOXYLIC ACID]	5 to 20 µM		
CN(C(=O)c1ccc(C(C)(C)C)cc1)c1cc(-c2ccccc2)sc1C(=O)O [Compound 247, 3-[(4-TERT-BUTYL-BENZOYL)-METHYL-AMINO]-5-PHENYL-THIOPHENE-2-CARBOXYLIC ACID]		5 to 20 µM	
C=C(C)Cc1cc(N(C(=O)c2ccc(Cl)cc2Cl)C(C)C)c(C(=O)O)s1 [Compound 338, 3-[(2,4-DICHLORO-BENZOYL)- ISOPROPYL-AMINO]-5-(2-METHYL- ALLYL)-THIOPHENE- 2-CARBOXYLIC ACID]		< 5 µM	
CC(C)(C)c1cc(NS(=O)(=O)c2ccc(Cl)cc2)c(C(=O)O)s1 [Compound 10, 5-TERT-BUTYL-3-(4-CHLORO-BENZENESULFONYLAMINO)-THIOPHENE-2-CARBOXYLIC ACID]		< 5 µM	
CC(C)N(C(=O)c1ccc(Cl)cc1Cl)c1cc(C2=CCN(C(=O)OCc3ccccc3)CC2)sc1C(=O)O [Compound 504, 4-(5-CARBOXY-4-[(2,4-DICHLORO- BENZOYL)-ISOPROPYL-AMINO]- THIOPHEN-2-YL)-3,6-DIHYDRO-2#H!- PYRIDINE-1-CARBOXYLIC ACID BENZYL ESTER]	< 5 µM		
CC(C)N(C(=O)c1ccc(Cl)cc1Cl)c1cc(-c2cccc(Cl)c2)sc1C(=O)O [Compound 294, 5-(3-CHLORO-PHENYL)-3-[(2,4-DICHLORO-BENZOYL)-ISOPROPYL-AMINO]-THIOPHENE-2-CARBOXYLIC ACID]		< 5 µM	
Cc1cc(S(=O)(=O)Nc2cc(-c3ccccc3)sc2C(=O)O)c(C)cc1Cl [Compound 3, 3-(4-CHLORO-2,5-DIMETHYL-BENZENESULFONYLAMINO)-5-PHENYL-THIOPHENE-2-CARBOXYLIC ACID]		5 to 20 µM	
O=C(O)c1sc(-c2ccccc2)cc1N(Cc1ccc(Cl)cc1)C(=O)C1CCC1 [Compound 461, 3-[(4-CHLORO-BENZYL)- CYCLOBUTANECARBONYL-AMINO]-5- PHENYL-THIOPHENE-2-CARBOXYLIC ACID]	5 to 20 µM		
O=C(O)c1sc(-c2ccc(F)cc2)cc1NS(=O)(=O)c1ccccc1 [Compound 135, 3-BENZENESULFONYLAMINO-5-(4-FLUORO-PHENYL)-THIOPHENE-2-CARBOXYLIC ACID]		< 5 µM	
CC(C)N(C(=O)c1ccc(Cl)cc1Br)c1cc(-c2ccccc2)sc1C(=O)O [Compound 306, 3-[(2-BROMO-4-CHLORO-BENZOYL)- ISOPROPYL-AMINO]-5-PHENYL- THIOPHENE-2-CARBOXYLIC ACID]		< 5 µM	
O=C(O)c1sc(-c2ccccc2)cc1NS(=O)(=O)c1ccccc1F [Compound 30, 3-(2-FLUORO-BENZENESULFONYLAMINO)-5-PHENYL-THIOPHENE-2-CARBOXYLIC ACID]		5 to 20 µM	
Cc1ccccc1C(=O)Nc1cc(-c2ccccc2)sc1C(=O)O [Compound 96, 3-(2-METHYL-BENZOYLAMINO)-5-PHENYL-THIOPHENE-2-CARBOXYLIC ACID]		5 to 20 µM	
C=CCN(C(=O)Cc1cccc(C)c1)c1cc(-c2ccccc2)sc1C(=O)O [Compound 354, 3-[ALLYL-(2-M-TOLYL-ACETYL)-AMINO]-5- PHENYL-THIOPHENE-2-CARBOXYLIC ACID]		5 to 20 µM	
O=C(O)c1sc(-c2ccccc2)cc1N(Cc1ccc([N+](=O)[O-])cc1)C(=O)C1CC1 [Compound 420, 3-[CYCLOPROPANECARBONYL-(4- NITRO-BENZYL)-AMINO]-5-PHENYL- THIOPHENE-2-CARBOXYLIC ACID]	5 to 20 µM		
Cc1ccccc1C(=O)N(C)c1cc(-c2ccccc2)sc1C(=O)O [Compound 97, 3-[METHYL-(2-METHYL-BENZOYL)-AMINO]-5-PHENYL-THIOPHENE-2-CARBOXYLIC ACID]		> 20 µM	
Cc1cccc(-c2cc(N(C(=O)c3ccc(Cl)cc3Cl)C(C)C)c(C(=O)O)s2)c1 [Compound 357, 3-[(2,4-DICHLORO-BENZOYL)- ISOPROPYL-AMINO]-5-M-TOLYL- THIOPHENE-2-CARBOXYLIC ACID]		< 5 µM	
